The record followed here is patent US7411083B2, “Substituted acetic acid derivatives” (Wyeth, priority 2003, dated 2008).

Molecules are shown by their SMILES.

This test deals with T1, recombinant human plasminogen activator inhibitor-1 (PAI-1) (Homo sapiens, UniProt P05121).
T1 construct: purchased Molecular Innovations, Royal Oak, Mich
T1 sequence (P05121 24-402): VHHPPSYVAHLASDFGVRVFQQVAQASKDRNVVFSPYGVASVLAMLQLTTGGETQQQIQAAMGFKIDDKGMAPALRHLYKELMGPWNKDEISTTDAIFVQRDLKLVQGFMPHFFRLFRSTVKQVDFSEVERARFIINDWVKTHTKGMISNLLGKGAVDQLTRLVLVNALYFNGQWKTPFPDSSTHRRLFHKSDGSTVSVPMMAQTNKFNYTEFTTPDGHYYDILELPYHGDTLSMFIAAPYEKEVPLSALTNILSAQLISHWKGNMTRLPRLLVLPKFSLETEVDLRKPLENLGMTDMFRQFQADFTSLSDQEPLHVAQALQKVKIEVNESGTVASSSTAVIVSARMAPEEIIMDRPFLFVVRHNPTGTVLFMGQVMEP
Put plainly: Screening for PAI-1 inhibition (residual tPA activity, Spectrozyme-tPA chromogenic substrate). Type of test: biochemical. The note with it: test compound at 100 Um; pH 6.6 buffer, 140 nM PAI-1, 70 nM tPA. In outline:
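PAI-1 at 140 nM, pH 6.6 buffer, preincubated 1 h at room temperature with compound (1-100 μM final, ≤0.2% DMSO), then 70 nM tPA added for 30 min. Residual tPA activity read by Spectrozyme-tPA absorbance at 405 nm at 0 and 60 min. Inhibition taken as residual tPA activity.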
One may read the inhibition as how much of the control response was suppressed. With `Cc1ccc(COc2ccc(OCc3ccc(C)cc3)c(/C=N/OCC(=O)O)c2)cc1` [Compound 160, {[((1E)-{2,5-bis[(4-methylbenzyl)oxy]phenyl}methylidene)amino]oxy}acetic acid], the inhibition at 100 µM came to 76%.
Under `C=CCn1cc(/C=N/OCC(=O)O)c2cc(OCc3ccc(Br)cc3)ccc21` [Compound 7, {[((1E)-{1-allyl-5-[(4-bromobenzyl)oxy]-1H-indol-3-yl}methylidene)amino]oxy}acetic acid] stands 83%.
For the molecule `O=C(O)CO/N=C/c1cccc(-c2ccc(OCc3c(Cl)cccc3Cl)cc2)c1` [Compound 87, {[((1E)-{4′-[(2,6-dichlorobenzyl)oxy]-1,1′-biphenyl-3-yl}methylidene)amino]oxy}acetic acid], the inhibition at 100 µM was determined as 85%.
`CC(C)(C)c1ccc(COc2ccc(-c3cccc(/C=N/OCC(=O)O)c3)cc2)cc1` [Compound 74, {[((1E)-{4′-[(4-tert-butylbenzyl)oxy]-1,1′-biphenyl-3-yl}methylidene)amino]oxy}acetic acid]: the inhibition at 100 µM turned out to be 34%.
Regarding `Cc1cccc(COc2ccc(-c3cccc(/C=N/OCC(=O)O)c3)cc2)c1` [Compound 86, {[((1E)-{4′-[(3-methylbenzyl)oxy]-1,1′-biphenyl-3-yl}methylidene)amino]oxy}acetic acid], the inhibition at 100 µM stood at 22%.
As for `Cc1cccc(COc2ccc(OCc3cccc(C)c3)c(/C=N/OCC(=O)O)c2)c1` [Compound 159, {[((1E)-{2,5-bis[(3-methylbenzyl)oxy]phenyl}methylidene)amino]oxy}acetic acid], the inhibition at 100 µM stood at 69%.
`O=C(O)CO/N=C/c1cc(OCc2cccc(C(F)(F)F)c2)cc(OCc2cccc(C(F)(F)F)c2)c1` [Compound 149, ({[(1E)-(3,5-bis{[3-(trifluoromethyl)benzyl]oxy}phenyl)methylidene]amino}oxy)acetic acid]: the inhibition at 100 µM was determined as 91%.
In the case of `O=C(O)CO/N=C/c1cccc(-c2ccc(OCc3cccc(Br)c3)cc2)c1` [Compound 77, {[((1E)-{4′-[(3-bromobenzyl)oxy]-1,1′-biphenyl-3-yl}methylidene)amino]oxy}acetic acid], the inhibition at 100 µM was determined as 85%.
The same measure for `O=C(O)CO/N=C/c1cccc(C#CCOc2cccc(Cl)c2)c1` [Compound 172, {[((1E)-{3-[3-(3-chlorophenoxy)prop-1-ynyl]phenyl}methylidene)amino]oxy}acetic acid]: 44%; for `CC(C)(C)c1ccc(COc2cccc(-c3cccc(/C=N/OCC(=O)O)c3)c2)cc1` [Compound 59, {[((1E)-{3′-[(4-tert-butylbenzyl)oxy]-1,1′-biphenyl-3-yl}methylidene)amino]oxy}acetic acid]: 63%.
For `O=C(O)CO/N=C/c1cccc(-c2ccc(OCc3ccccc3Cl)cc2)c1` [Compound 82, {[((1E)-{4′-[(2-chlorobenzyl)oxy]-1,1′-biphenyl-3-yl}methylidene)amino]oxy}acetic acid], the inhibition at 100 µM is 89%.
Regarding `O=C(O)CO/N=C/c1cc(OCc2ccc(C(F)(F)F)cc2)ccc1OCc1ccc(C(F)(F)F)cc1` [Compound 154, ({[(1E)-(2,5-bis{[4-(trifluoromethyl)benzyl]oxy}phenyl)methylidene]amino}oxy)acetic acid], the inhibition at 100 µM was 91%.
Under `C=CCn1cc(/C=N/OCC(=O)O)c2cc(OCc3ccc(Cl)cc3)ccc21` [Compound 45, {[((1E)-{1-allyl-5-[(4-chlorobenzyl)oxy]-1H-indol-3-yl}methylidene)amino]oxy}acetic acid] stands 96%; under `O=C(O)CO/N=C/c1cccc(-c2cccc(OCc3ccc(Br)cc3)c2)c1` [Compound 60, {[((1E)-{3′-[(4-bromobenzyl)oxy]-1,1′-biphenyl-3-yl}methylidene)amino]oxy}acetic acid], 88%.
On to `O=C(O)CO/N=C/c1cccc(-c2ccc(OCc3ccc(Cl)cc3)cc2)c1` [Compound 81, {[((1E)-{4′-[(4-chlorobenzyl)oxy]-1,1′-biphenyl-3-yl}methylidene)amino]oxy}acetic acid], for which the inhibition at 100 µM turned out to be 28%.
As to `CC(C)(C)c1ccc(OCC#Cc2cccc(/C=N/OCC(=O)O)c2)cc1` [Compound 168, {[((1E)-{3-[3-(4-tert-butylphenoxy)prop-1-ynyl]phenyl}methylidene)amino]oxy}acetic acid], the inhibition at 100 µM was 52%.
The same measure for `O=C(O)CO/N=C/c1cccc(OCc2ccc(Br)cc2)c1OCc1ccc(Br)cc1` [Compound 132, {[((1E)-{2,3-bis[(4-bromobenzyl)oxy]phenyl}methylidene)amino]oxy}acetic acid]: 65%; for `O=C(O)CO/N=C/c1cccc(-c2ccc(OCc3cc(C(F)(F)F)cc(C(F)(F)F)c3)cc2)c1` [Compound 76, ({[(1E)-(4′-{[3,5-bis(trifluoromethyl)benzyl]oxy}-1,1′-biphenyl-3-yl)methylidene]amino}oxy)acetic acid]: 73%.
For the molecule `Cc1cccc(COc2cccc(-c3cccc(/C=N/OCC(=O)O)c3)c2)c1` [Compound 71, {[((1E)-{3′-[(3-methylbenzyl)oxy]-1,1′-biphenyl-3-yl}methylidene)amino]oxy}acetic acid], the inhibition at 100 µM was 85%.
For the molecule `O=C(O)CO/N=C/c1ccc(OCc2ccc(Br)cc2)c(OCc2ccc(Br)cc2)c1` [Compound 115, {[((1E)-{3,4-bis[(4-bromobenzyl)oxy]phenyl}methylidene)amino]oxy}acetic acid], the inhibition at 100 µM stood at 87%.
With `Cc1ccc(COc2cc(/C=N/OCC(=O)O)cc(OCc3ccc(C)cc3)c2)cc1` [Compound 150, {[((1E)-{3,5-bis[(4-methylbenzyl)oxy]phenyl}methylidene)amino]oxy}acetic acid], the inhibition at 100 µM was 90%.
For `O=C(O)CO/N=C/c1ccc(-c2ccc(OCc3ccc(Cl)c(Cl)c3)cc2)cc1` [Compound 108, {[((1E)-{4′-[(3,4-dichlorobenzyl)oxy]-1,1′-biphenyl-4-yl}methylidene)amino]oxy}acetic acid], the inhibition at 100 µM was found to be 58%.
Regarding `C=CCn1cc(/C=N/OCC(=O)O)c2cc(OCc3cccc(C(F)(F)F)c3)ccc21` [Compound 22, ({[(1E)-(1-allyl-5-{[3-(trifluoromethyl)benzyl]oxy}-1H-indol-3-yl)methylidene]amino}oxy)acetic acid], the inhibition at 100 µM was 80%.
The same measure for `O=C(O)CO/N=C/c1ccc(-c2cccc(OCc3ccc(Cl)c(Cl)c3)c2)cc1` [Compound 97, {[((1E)-{3′-[(3,4-dichlorobenzyl)oxy]-1,1′-biphenyl-4-yl}methylidene)amino]oxy}acetic acid]: 65%.
As to `O=C(O)CO/N=C/c1ccc(-c2cccc(OCc3ccc4ccccc4c3)c2)cc1` [Compound 98, [({(1E)-[3′-(2-naphthylmethoxy)-1,1′-biphenyl-4-yl]methylidene}amino)oxy]acetic acid], the inhibition at 100 µM worked out at 46%.
Consider `O=C(O)CO/N=C/c1cccc(C#CCOc2cc(C(F)(F)F)cc(C(F)(F)F)c2)c1` [Compound 170, ({[(1E)-(3-{3-[3,5-bis(trifluoromethyl)phenoxy]prop-1-ynyl}phenyl)methylidene]amino}oxy)acetic acid], for which the inhibition at 100 µM worked out at 73%.
With `CC(C)(C)c1ccc(COc2cccc(-c3ccc(/C=N/OCC(=O)O)cc3)c2)cc1` [Compound 89, {[((1E)-{3′-[(4-tert-butylbenzyl)oxy]-1,1′-biphenyl-4-yl}methylidene)amino]oxy}acetic acid], the inhibition at 100 µM was 57%.
The same measure for `CC(C)(C)c1ccc(COc2cc(/C=N/OCC(=O)O)cc(OCc3ccc(C(C)(C)C)cc3)c2)cc1` [Compound 146, {[((1E)-{3,5-bis[(4-tert-butylbenzyl)oxy]phenyl}methylidene)amino]oxy}acetic acid]: 49%; for `Cn1cc(/C=N/OCC(=O)O)c2cc(OCc3ccccc3Cl)ccc21` [Compound 50, {[((1E)-{5-[(2-chlorobenzyl)oxy]-1-methyl-1H-indol-3-yl}methylidene)amino]oxy}acetic acid]: 31%; for `Cn1cc(/C=N/OCC(=O)O)c2cc(OCc3ccc4ccccc4c3)ccc21` [Compound 57, [({(1E)-[1-methyl-5-(2-naphthylmethoxy)-1H-indol-3-yl]methylidene}amino)oxy]acetic acid]: 64%.
Regarding `O=C(O)CO/N=C/c1ccc(-c2cccc(OCc3cccc(C(F)(F)F)c3)c2)cc1` [Compound 94, ({[(1E)-(3′-{[3-(trifluoromethyl)benzyl]oxy}-1,1′-biphenyl-4-yl)methylidene]amino}oxy)acetic acid], the inhibition at 100 µM came to 74%.
As for `O=C(O)CO/N=C/c1ccc(OCc2cccc(C(F)(F)F)c2)cc1OCc1cccc(C(F)(F)F)c1` [Compound 130, ({[(1E)-(2,4-bis{[3-(trifluoromethyl)benzyl]oxy}phenyl)methylidene]amino}oxy)acetic acid], the inhibition at 100 µM came to 91%.
Take `O=C(O)CO/N=C/c1ccc(-c2ccc(OCc3ccccc3)cc2)cc1` [Compound 105, [({(1E)-[4′-(benzyloxy)-1,1′-biphenyl-4-yl]methylidene}amino)oxy]acetic acid]: the inhibition at 100 µM is 5%.
Consider `CC(C)Cc1ccc(OCC#Cc2ccc(/C=N/OCC(=O)O)cc2)cc1` [Compound 167, {[((1E)-{4-[3-(4-isobutylphenoxy)prop-1-ynyl]phenyl}methylidene)amino]oxy}acetic acid], for which the inhibition at 100 µM was 53%.
For the molecule `CC(C)(C)c1ccc(COc2ccc(-c3ccc(/C=N/OCC(=O)O)cc3)cc2)cc1` [Compound 102, {[((1E)-{4′-[(4-tert-butylbenzyl)oxy]-1,1′-biphenyl-4-yl}methylidene)amino]oxy}acetic acid], the inhibition at 100 µM came to 26%.
Take `O=C(O)CO/N=C/c1ccc(-c2cccc(OCc3ccccc3Cl)c2)cc1` [Compound 96, {[((1E)-{3′-[(2-chlorobenzyl)oxy]-1,1′-biphenyl-4-yl}methylidene)amino]oxy}acetic acid]: the inhibition at 100 µM came out at 61%.
